How the values were obtained:
[1] = system: récepteurs AMPA/Kainate; test: Hippocampal EPSP induced by AMPA/Kainate receptor activation (rat hippocampal slices, Schäffer collaterals stimulation); assay type: cell-based; conditions: for IC50: rat hippocampal slices, CA1, in presence of Mg++ (blocks NMDA receptors), read-out: IC50 (inhibition des EPSP hippocampiques induits par l'activation des récepteurs AMPA/Kainate); for EPSP hippocampique IC50 AMPA-Kainate/IC50 NMDA-Glycine: ratio of IC50 on AMPA-Kainate EPSP to IC50 on NMDA-Glycine EPSP
Method: Des coupes transversales (500 µm) d'hippocampe de Rat sont placées dans un milieu de composition : NaCl (120 mM), KCl (5 mM), CaCl₂ (1 mM), MgSO₄ (1 mM), KH₂PO₄ (1,3 mM), NaHCO₃ (20 mM), HEPES (10 mM), glucose (10 mM), pH 7,35. Les "EPSP" sont enregistrés dans le champ dendritique de la région CA1 lors de stimulations toutes les 30 secondes de la stratum radiatum (50-100 µA, 20 µs). Les EPSP sont évalués au maximum de l'onde négative. Le produit étudié est appliqué durant 10 minutes.

[2] = system: récepteur kainate; test: Kainate-induced currents in Xenopus oocytes injected with rat cerebral cortex mRNA (two-electrode voltage clamp); assay type: cell-based; conditions: Xenopus oocyte, kainate 100 µM, -60 mV; read-out: Courant Kainate IC50
Method: (§1) Des oocytes de Xenopus sont injectés de 50 ng d'ARNm poly (A^+) isolés de cortex cérébral de Rat et incubés 2 à 3 Jours à 18°C pour en permettre l'expression protéique. Les courants entrants induits par les AAE sont mesurés dans un milieu de composition : NaCl (82,5 mM), KCl (2,5 mM), CaCl₂ (1 mM), MgCl₂ (1 mM), NaH₂PO₄ (1 mM), HEPES (5 mM), pH 7,4 par la méthode du Voltage-clamp à 2 électrodes (potentiel = - 60 mV). Pour la mesure des courants induits par le NMDA et la glycine, MgCl₂ est absent du milieu et le CaCl₂ est amené à la concentration de 2 mM. Les agonistes AAE induisant les courants sont utilisés aux concentrations suivantes : kainate : 100 µM; AMPA : 30 µM; glycine/NMDA : 3/30 µM. Le produit étudié est appliqué 30 secondes avant et durant l'application de l'agoniste.

[3] = biological target: récepteur AMPA; test: AMPA-induced currents in Xenopus oocytes injected with rat cerebral cortex mRNA (two-electrode voltage clamp); assay type: cell-based; conditions: for Ki: Xenopus oocyte, AMPA 30 µM, -60 mV, read-out: Courant AMPA Ki; for Oocyte de Xenopus Ki AMPA/Ki NMDA/Gly: ratio of Ki on AMPA current to Ki on NMDA/Gly current
Method: as §1

[4] = biological target: récepteur AMPA; test: Membrane binding (3H-AMPA), rat cortex homogenate; conditions: binding to AMPA receptor, rat cortex membranes, 4°C, 30 min
Method: Il est réalisé à partir d'un homogénat de cortex de Rat. Le culot membranaire est classiquement préparé dans un tampon saccharose par centrifugations différentielles puis congelé jusqu'à utilisation. Après décongélation, 200 µl d'homogénat de membranes sont repris dans un tampon Tris HCl (30 mM), CaCl₂ (2,5 mM), pH 7,4 et incubés à 4°C pendant 30 minutes en présence de 25 µl de ³H-AMPA ou de ³H-Kainate et de 25 µl du produit à tester. La liaison non-spécifique est déterminée en présence de 10 µM de quisqualate (binding AMPA) ou de 10 µM d'acide kainique (binding kainate). Les membranes sont ensuite isolées par filtration. Après séchage des filtres, la radioactivité est mesurée par scintillation.

Row | IC50 [1] [nM] | EPSP hippocampique IC50 AMPA-Kainate/IC50 NMDA-Glycine [1] | IC50 [2] [nM] | Ki [3] [nM] | SMILES | Oocyte de Xenopus Ki AMPA/Ki NMDA/Gly [3] | Ki [4] [nM]
1 | 2900 | 0,03 | 270 | 400 | N#Cc1cc2c(cc1[N+](=O)[O-])=NC(=O)C(=O)N=2 [CNQX, 6-cyano-7-nitroquinoxaline-2,3-dione] | 0,19 | 70
2 | 1000 | << 0,001 | 60 | 60 | NS(=O)(=O)c1cccc2c3c(cc([N+](=O)[O-])c12)=NC(=O)C(=O)N=3 [NBQX, 6-nitro-7-sulfamoylbenzo[f]quinoxaline-2,3-dione] | << 0,001 | 

Row | SMILES | IC50 [1] [nM] | EPSP hippocampique IC50 AMPA-Kainate/IC50 NMDA-Glycine [1] | IC50 [2] [nM] | Ki [3] [nM] | Oocyte de Xenopus Ki AMPA/Ki NMDA/Gly [3] | Ki [4] [nM]
3 | O=c1[nH]c2cc([N+](=O)[O-])ccc2cc1NS(=O)(=O)C(F)(F)F [Exemple 2, 7-Nitro-3-(trifluorométhylsulfonylamino)-2-(1H)-quinoléinone] | 10000 | 0,25 | 500 | 370 | 0,60 | 600

From EP0542609B1, “3-sulfonylamino-2-(1H)-quinolinones and 7-aza derivatives as excitatory amino acids antagonists” (ADIR ET COMPAGNIE, priority 1991, dated 1993)
